Entries after “also recorded” stand apart in the source; their conditions may differ. Where a SMILES comes first, the peptide text is derived from it. [ ]: non-standard residue; d: D form. The star is where a group is joined. X1 = O=C(OCc1ccc(/N=N/c2ccccc2)cc1)*
Legend:
bacterial collagenase = assay: Hydrolysis by bacterial collagenase; conditions: 0.04 mg/ml bacterial collagenase
[1] = Degradation in intestinal homogenates; assay type: in vitro ADME; conditions: 0.5 mM; various intestinal homogenates
From the text: Key: .quadrature., Pz-Pro-Leu; , Pro-Leu.

Caco2 monolayers = assay: Penetration of peptides across Caco2 monolayers; conditions: 5 mM
[2] = test system: isolated segments of duodenum, jejunum, ileum, ascending colon, descending colon, and rectum; assay: Penetration across isolated intestinal segments in modified Ussing chamber; assay type: in vitro ADME, albino rabbit; conditions: for penetration relative to atenolol, timolol and propranolol: all intestinal segments, all at 3 mM; for penetration: descending colon
Description: The penetration of Pz-peptide across the isolated segments of duodenum, jejunum, ileum, ascending colon, descending colon, and rectum of the albino rabbit was evaluated in the modified Ussing chamber. Solution of Pz-peptide at concentrations of 1, 3, and 5 mM were prepared in 5% hydroxypropyl β-cyclodextrin, which was found not to affect either collagenase activity or integrity of the intestinal segments. Periodically up until 240 min, a 50 μl aliquot was collected from the serosal side and injected directly into the HPLC. The apparent permeability coefficient Papp, was calculated using methods well known to one skilled in the art. Papp is defined as the flux of any solute transported across a given membrane per unit area normalized to the concentration applied (see pages 72-73 from the text by W. D. Stein entitled, "Transport and Diffusion A Cross Cell Membranes").

[3] = test system: collagenase-like activity; assay: Collagenase activity (Pz-peptide hydrolysis) in homogenates and subcellular fractions of gastrointestinal mucosa; assay type: in vitro ADME; conditions: albino rabbit intestinal segments
Description: Collagenase activity in homogenates and subcellular fractions of the gastrointestinal mucosa of the albino rabbit was determined by incubating 30 μl a homogenate or subcellular fraction with 20 μl of a Pz-peptide solution in 11% ethanol for up to 60 min. The subcellular fractions were the cytosolic and membrane fractions, and the concentrations of Pz-peptide ranged from 0.1 to 2 mM. The reaction was stopped by adding 225 μl of acetonitrile to the incubation mixture. Following centrifugation to remove precipitated proteins, an aliquot of the supernatant was injected into the HPLC for assay of the intact peptide and its hydrolytic product, Pz-L-Pro-L-Leu. Collagenase activity was determined from the initial slope of a plot of product concentration vs. time.
Using the procedure described in section A above, collagenase actively for the Pz-peptide was found in both tissue homogenate and subcellular fractions of the intestinal segments of the albino rabbit. Referring to FIG. 1, collagenase-like activity was highest in the descending colon and lowest in the jejunum, there being a 7-fold difference in activity at both high and low substrate concentration. […] About 60% of collagenase-like activity was in the cytosol.

[4] = test system: human colon carcinoma cell monolayer (Caco2); assay: Transepithelial electrical resistance (TEER) of Caco2 monolayers; conditions: 3 mM; prolonged exposure
Description: A 500 ohms·cm^2 transepithelial electrical resistance, TEER, was used for the study.
The experiment was initiated by replacing the mucosal solution with sample solution. The viability of the cell monolayers was measured by TEER before and after exposure to the peptide solution. Five paracellular markers with different molecular radii were used to determine the extent of enhancement.

[5] = from Betageri and Rogers (1987); cited from earlier work

## CC(C)C[C@H](NC(=O)[C@@H]1CCCN1)C(=O)N[C@@H](CCC(=O)O)C(=O)N1CCC[C@H]1C(=O)N[C@H](CCCNC(=N)N)C(=O)O [PLEP^d R, Pro-Leu-Glu-Pro-^d Arg] (H-PLEP[dR]-OH)
Bacterial collagenase
  susceptibility to collagenase action: not susceptible to collagenase action

## CC(C)C[C@H](NC(=O)[C@@H]1CCCN1)C(=O)O [Pro-Leu, reference compound] (H-Pro-Leu-OH)
[1]
  enzymatic degradation: degraded to various extent
Caco2 monolayers
  penetration relative to Pz-Pro-Leu: about 10 times lower

## CC(C)C[C@H](NC(=O)[C@@H]1CCCN1C(=O)OCc1ccc(/N=N/c2ccccc2)cc1)C(=O)O [Pz-Pro-Leu, Pz-L-Pro-L-Leu]
[2]; all intestinal segments studied
  concentration dependence of penetration: independent of concentrations
[2]
  penetration relative to atenolol, timolol and propranolol: penetrated equally well or even better
  penetration: penetrated very well
[1]
  enzymatic degradation: resistant to enzymatic degradation

## CC(C)C[C@H](NC(=O)[C@@H]1CCCN1C(=O)OCc1ccc(/N=N/c2ccccc2)cc1)C(=O)NCC(=O)N1CCC[C@H]1C(=O)N[C@H](CCCNC(=N)N)C(=O)O [Pz-peptide, Pz-Pro-Leu-Gly-Pro-D-Arg] (X1-PLGP[dR]-OH)
[3]
  rank order of collagenase-like activity (Pz-peptide hydrolysis) in intestinal segments: descending colon>ascending colon>rectum>ileum>duodenum>jejunum
[2]; 1-5 mM, lower G.I. regions
  concentration dependence of penetration: increased with increasing peptide concentrations
[2]; 1-5 mM, upper G.I. segments
  concentration dependence of transport: independent of concentrations
[2]; albino rabbit intestinal segments
  permeability, lower intestine versus upper intestine: lower intestine was more permeable
[2]
  penetration relative to atenolol, timolol and propranolol: penetrated equally well or even better
  penetration: penetrated very well; also recorded: penetrated the second best
[2]; lower intestine
  rank order of permeability coefficient: rectum>descending colon>ascending colon
[2]; upper intestine
  permeability of duodenum, jejunum and ileum: equally permeable

## C=C1[C@@H](C)[C@H]2[C@H](Cc3ccccc3)NC(=O)[C@]23OC(=O)/C=C/[C@H](O)CCC[C@@H](C)C/C=C/[C@H]3[C@@H]1O [cytochalasin B]
[4]
  recovery of TEER: only partial recovery

## CC(C)NCC(O)COc1cccc2ccccc12 (stereo not drawn) [propranolol]
[5]
  distribution coefficient (DC): 1640

## CC(C)(C)NC[C@H](O)COc1nsnc1N1CCOCC1 [timolol]
[5]
  distribution coefficient (DC): 82
